The values below come from US6677433B2 (The Regents of the University of California, priority 2001, dated 2004).

Series [1] deals with thioredoxin (Escherichia coli, UniProt P0AA25).
Series [2] relates to pepsin. Kind of series: Pepsin assay in simulated gastric fluid. Particulars: thioredoxin-reduced form in milk, SGF 37° C. It is filed as in vitro ADME, porcine. How it is done: BLG, 640 μg, or milk, 1 mg protein (i.e., about 30 μl), was incubated with or without the thioredoxin system (NTS) at either 4° C. […] The BLG, 320 μg, or milk, 500 μg protein, was then treated in 200 μl of simulated gastric fluid (SGF) as described by Astwood, J. D. et al. (1996), “Stability of food allergens to digestion in vitro”, Nature Biotechnol. 14:1269-1273. SGF consists of 0.32% pepsin (w/v) and 30 mM NaCl adjusted at pH 1.2 with HCl (Board of Trustees (ed.) 1995, Simulated Gastric Fluid, TS., pp. 2053 in the United States Pharmacopeia 23, The National Formulary 18. United States Pharmacopeial Convention, Inc. Rockville, Md.). The reaction mixture was incubated at 37° C. and stopped by adding 0.375-fold volume of 160 mM Na2CO3 (ca. pH 7) after 0, 0.25, 1, 2, 4, 8, 15, 30 and 60 min incubation. The protein mixture was then subjected to SDS-PAGE (15% gels) and stained for protein with Coomassie blue as described below. As indicated, the allergenicity of the digested samples was determined by skin test analysis.

Series [3] deals with atopic dogs. The series can be described thus: Feeding challenges with BLG, upper GI index. It is filed as in vivo, dog. The protocol:
Reduction of 80% pure BLG (a mixture of the A and B forms) was carried out for each dog in 100 ml of water. Each gram of BLG was treated by adding an aqueous mixture of 104 mg of NADPH, 1 mg of E. coli thioredoxin and 1 mg of E. coli NTR. The reactions occurred in a shaker at 125 rpm at 37° C. for 45 min. Samples were stored overnight at 4° C. The following day untreated (control) or treated BLG, 2.5 gm was mixed with a 12 oz. can of P/D food (Hills) and fed to a dog. Unchallenged animals received dog food alone without BLG while control animals received dog food with untreated BLG. Dogs were initially fed ¼ can of untreated food to initiate gastric flow. After 15 min, they were then fed at 3 intervals separated by 15 min ⅓ of a can of food that had been mixed with 2.5 g of either untreated or thioredoxin treated BLG. During these intervals dogs were monitored and their GI response assessed. Dogs were then observed and their response recorded at hourly intervals for the next 5 hr.
The digestion response of the food challenged dogs described above was assessed by assigning numbers to the timing, volume and fluidity of vomit induced by feeding. Fluidity: no vomit=0, solid vomit=1, liquid vomit=2, liquid with blood or bile vomit=3. Volume: no vomit=0, small vomit=1 and large vomit=2. Timing: delayed vomit=1, immediate vomit=2.

Series [4] deals with Gliadins. Kind of series: Reductant specificity of gliadins (mBBr, native gel, densitometer). It is filed as biochemical, durum wheat. The arrangement: Gliadin, % Relative Reduction, α / Gliadin, % Relative Reduction, β / Gliadin, % Relative Reduction, γ: concentration or dose not given beside the values. As to conditions: Thioredoxin = 100. The protocol:
(§1) For isolation of insoluble storage proteins, semolina (0.2 g) was extracted sequentially with 1 ml of the following solutions for the indicated times at 25° C.; (1) 50 mM Tris-HCl, pH 7.5 (20 min); (2) 70% ethanol (2 hr); and (3) 0.1 M acetic acid (2 hr). During extraction, samples were placed on an electrical rotator and, in addition, occasionally agitated with a vortex mixer. After extraction with each solvent, samples were centrifuged (12,000 rpm for 5 min) in an Eppendorf microfuge and, supernatant fractions were saved for analysis. In between each extraction, pellets were washed with 1 ml of water, collected by centrifugation as before and the supernatant wash fractions were discarded. By convention, the fractions are designated: (1) albumin/globulin; (2) gliadin; and (3) glutenin.
(§2) Reactions were carried out in 100 mM Tris-HCl buffer, pH 7.9. As indicated, 0.7 μg NTR and 1 μg thioredoxin (both from E. coli unless specified otherwise) were added to 70 μl of this buffer containing 1 mM NADPH and 10 μg of target protein.
To resolve the different types of gliadins, native polyacrylamide gel electrophoresis was performed in 6% gels (a procedure designed to separate gliadins into the four types) as described by Bushuk and Zillman (Bushuk, W. et al. (1978), Can. J. Plant Sci. 58:505-515) and modified for vertical slab gels by Sapirstein and Bushuk (Sapirstein, H. D. et al. (1985), Cereal Chem. 62:372-377). A gel solution in 100 ml final volume contained 6.0 g acrylamide, 0.3 g bisacrylamide, 0.024 g ascorbic acid, 0.2 mg ferrous sulfate heptahydrate and 0.25 g aluminum lactate. The pH was adjusted to 3.1 with lactic acid. The gel solution was degassed for 2 hr. on ice and then 0.5 ml of 3% hydrogen peroxide was added as a polymerization catalyst. The running buffer, also adjusted to pH 3.1 with lactic acid, contained 0.5 g aluminum lactate per liter. Duration of electrophoresis was approximately 4 hr., with a constant current of 50 mA. Electrophoresis was terminated when the solvent front, marked with methyl green tracking dye, migrated to about 1 cm from the end of the gel.
(§3) The Polaroid negatives of fluorescent gels and prints of wet protein stained gels were scanned with a laser densitometer (Pharmacia-LKB UltroScan XL). Fluorescence was quantified by evaluating peak areas after integration with GelScan XL software.
The gliadin fraction is made up of four different protein types, designated α, β, γ and ω, which can be separated by native polyacrylamide gel electrophoresis under acidic conditions (Bushuk, W. et al. (1978), Can. J. Plant Sci. 58:505-515; Kasarda, D. D. et al. (1976), Adv. Cer. Sci. Tech. 1:158-236; Sapirstein, H. D. et al. (1985), Cereal Chem. 62:372-377; and Tatham, A. S. et al. (1990), Adv. Cer. Sci. Tech. 10:1-78). Except for the ω) gliadins, each species contains cystine (S—S) groups and thus has the potential for reduction by thioredoxin. In this study, following incubation with the indicated additions, proteins were derivatized with mBBr, and fluorescence was visualized after acidic-polyacrylamide gel electrophoresis. The lanes in the second gliadin gel in this study were as follows: 1. Control: no addition. 2. GSH: reduced glutathione. 3. GSH/GR/NADPH: reduced glutathione, glutathione reductase (from spinach leaves) and NADPH. 4. NGS: NADPH, reduced glutathione, glutathione reductase (from spinach leaves) and glutaredoxin (from E. coli). 5. NGS+NTS: combination of 4 and 6. 6. NTS: NADPH, NTR, and thioredoxin (both proteins from E. coli). 7. MET/T(Ec): β-mercaptoethanol and thioredoxin (E. coli). 8. DTT/T(Ec): DTT and thioredoxin (E. coli). 9. NTS(−T): same as 6 except without thioredoxin. 10. NGS+NTS,-Gliadin: same as 5 except without the gliadin fraction.

Series [5] concerns Glutenins. Kind of series: Reductant specificity of glutenins (mBBr/SDS-PAGE, densitometer). It is filed as biochemical, durum wheat. The arrangement: concentration or dose not given beside the values. How it is done: as §1, §2
SDS-polyacrylamide electrophoresis of the mBBr-derivatized samples was performed in 15% gels at pH 8.5 as described by Laemmli, U.K. (1970), Nature 227:680-685. Gels of 1.5 mm thickness were developed for 16 hr. at a constant current of 9 mA.
as §3

Series [6] concerns castor seed 2S protein. It is filed as biochemical, Ricinus communis.
Series [7] has as its system egg white proteins. The series can be described thus: Reduction of egg white proteins (mBBr/SDS-PAGE). It is filed as biochemical, chicken. Particulars: 1 hr at room temperature. How it is done: Dried chicken egg white was purchased from Sigma Chemical Co. About 80% of the total proteins in egg white are allergens. A solution of 20 mg/ml egg white was resuspended in PBS. Since not all the material was dissolved, it was centrifuged at 14,000 RPM for 2 min. The soluble egg white proteins were used for the reduction study using mBBr fluorescent labelling and SDS-polyacrylamide gel electrophoresis analysis. The treatments used were the control (no reductant), NTS, DTT plus thioredoxin, reduced glutathione (GSH) and reduced glutathione/glutathione reductase/NADPH. Reactions were carried out in PBS with 23 microliters of the soluble proteins from the 20 mg/ml egg white suspension in a final volume of 100 microliters. In the NTS, 7.5 mM NADPH, 2.4 micrograms thioredoxin and 2.1 micrograms NTR were used. When thioredoxin was reduced by DTT, NADPH and NTR were omitted and DTT was added to 1.5 mM. The GSH concentration used was 3 mM. For reduction by the GSH/GR/NADPH system, 3 mM GSH, 4 micrograms GR and 7.5 mM NADPH were used. The mixture was incubated for 1 hr at room temperature. After incubation, 7 microliters of 80 mM mBBr was added and the reaction continued for 15 min at room temperature. […] Samples were then analyzed by SDS-polyacrylamide gel electrophoresis.

Series [8] relates to trypsin. Kind of series: Trypsin proteolysis of purified milk allergen proteins. It is filed as biochemical. Particulars: 2 μg trypsin. The protocol: The analysis of the reduction was done using the mBBr/SDS-PAGE techniques. Further in this study, when 10 μg of an NTS reduced purified milk allergen protein, β-lactoglobulin (Sigma Chemical Co.), was treated with 2 μg of trypsin, proteolysis was 100% as compared with only 50% for the identically trypsin treated oxidized β-lactoglobulin. […] However, 10 μg of purified […] reduced by the NTS was proteolyzed 80% by trypsin. Also 10 μg of α-lactalbumin reduced by 0.8 μg of thioredoxin and 0.5 mM DTT was 100% proteolyzed by 2 μg of trypsin.

Where two headings read alike, the source gives them in different places. Where only a bound is given, the exact number is not on record here.

Turning to “erabutoxin b: short postsynaptic snake neurotoxin”, the “reduction of the toxin” value in series [1] is recorded as “significantly reduced”.
“Treated: BLG reduced with NADPH, E. coli thioredoxin and NTR” came in with a time to digestion in series [2] of at most 60 s. Besides, the “Upper GI Index” value came to 0 in series [3] (dog 6GCB1, Treated Exp. A, Control Exp. B); 0 in series [3] (dog 6GCB3, BLG 2.5 g in dog food, Control Exp. A, Treated Exp. B); 6 in series [3] (dog 6GCB4, Treated Exp. A, Control Exp. B); 0 in series [3] (dog 6GCB6, Treated Exp. A, Control Exp. B); 3 in series [3] (dog 6GCB7, Control Exp. A, Treated Exp. B). In addition, in series [3] (repeated feeding trials, on average), the “gastric reflux that disappeared” value is given as “about 70%”.
On to “Thioredoxin: E. coli thioredoxin reduced by NADPH and NTR”, for which, in series [4], the “Gliadin, % Relative Reduction, Aggregate (proteins not entering the gel)” value was found to be 100.0%; the “Gliadin, % Relative Reduction, α” value is on record as 100.0%; the “Gliadin, % Relative Reduction, β” value is 100.0%; the “Gliadin, % Relative Reduction, γ” value was 100.0%. Further, in series [5] (Thioredoxin = 100), the “Glutenin, % Relative Reduction, 30-40 kDa” value amounted to 100%; the “Glutenin, % Relative Reduction, 40-60 kDa” value stood at 100%; the “Glutenin, % Relative Reduction, 60-110 kDa” value turned out to be 100%.
`N[C@@H](CCC(=O)N[C@@H](CS)C(=O)NCC(=O)O)C(=O)O` [Glutathione, reduced glutathione, reference compound]: in series [4], the “Gliadin, % Relative Reduction, Aggregate (proteins not entering the gel)” value was found to be 60.1%; the “Gliadin, % Relative Reduction, α” value is 36.4%; the “Gliadin, % Relative Reduction, β” value came to 68.1%; the “Gliadin, % Relative Reduction, γ” value is 60.6%. In series [5], the “Glutenin, % Relative Reduction, 30-40 kDa” value worked out at 29%; the “Glutenin, % Relative Reduction, 40-60 kDa” value was 51%; the “Glutenin, % Relative Reduction, 60-110 kDa” value is given as 31%. Further, the “Relative Reduction (%)” value in series [6] amounted to 0%. Besides, the “effectiveness in reducing egg white proteins” value in series [7] is recorded as “ineffective reductant”.

B1: α-lactalbumin: purified milk allergen (protein, UniProt P00711 20-142, looked up)
Alpha-lactalbumin: EQLTKCEVFRELKDLKGYGGVSLPEWVCTTFHTSGYDTQAIVQNNDSTEYGLFQINNKIWCKDDQNPHSSNICNISCDKFLDDDLTDDIMCVKKILDKVGINYWLAHKALCSEKLDQWLCEKL
Regarding B1, the proteolysis by trypsin entry is on record as “no noticeable proteolysis” in series [8] (10 μg oxidized protein); 100% in series [8] (10 μg protein reduced by 0.8 μg thioredoxin and 0.5 mM DTT).

B2: Glutaredoxin: E. coli glutaredoxin with glutathione reductase, glutathione and NADPH (protein, UniProt P68688 1-85, looked up)
Glutaredoxin 1: MQTVIFGRSGCPYCVRAKDLAEKLSNERDDFQYQYVDIRAEGITKEDLQQKAGKPVETVPQIFVDQQHIGGYTDFAAWVKENLDA
modifications: with glutathione reductase, glutathione, NADPH
For B2, in series [4], the “Gliadin, % Relative Reduction, Aggregate (proteins not entering the gel)” value is listed as 61.5%; the “Gliadin, % Relative Reduction, α” value is 43.5%; the “Gliadin, % Relative Reduction, β” value amounted to 83.3%; the “Gliadin, % Relative Reduction, γ” value is recorded as 79.7%. Also, in series [5] (Thioredoxin = 100), the “Glutenin, % Relative Reduction, 30-40 kDa” value is 40%; the “Glutenin, % Relative Reduction, 40-60 kDa” value was 72%; the “Glutenin, % Relative Reduction, 60-110 kDa” value worked out at 50%.
